Laboratory results from patent publication US7056491B2, “Monoterpenes and sesquiterpenes as chemotherapeutic and radiation sensitizers and immunomodulators” (Wisconsin Alumni Research Foundation, priority 2000, dated 2006).
Where two headings read alike, the source gives them in different places.

Key:
[1] = system: rat mammary carcinoma; conditions: cited from earlier work; for regression of rat mammary carcinoma: dietary administration
[2] = system: DU145 prostate cancer cells; assay: Clonogenic survival assay, POH with or without radiation, DU145; type: cell-based, human
Protocol: Subconfluent cultures of prostate cancer cell line DU145 were treated with 0.1–0.5 mM of POH for 72 hours and subsequently to increasing doses of radiation from 0.1 Gy to 8.5 Gy. Control cells were treated with the indicated doses of radiation alone. The cells were harvested and an optimum number of cells were allowed to grow for 14 days. The resulting colonies were stained and counted. Each graphed point represents mean values ± SE values of triplicate dishes.
(§1) Table 1 summarizing data from different cell lines treated with radiation, radiation plus POH, and POH alone. Subconfluent cultures of human glioma (T98G, M059K, U251), prostate (DU145, PC3), colon (DLD-1, HT29) and pancreatic (MIAPACA) cancer cell lines were treated with 0.1–0.5 mM of POH for 72 hours and subsequently to increasing doses of radiation from 0.1 Gy to 8.5 Gy. Control cells were treated with medium alone. The cells were harvested and an optimum number of cells were allowed to grow for 14 days. The resulting colonies were stained and counted. Each graphed point represents mean values ± SE values of triplicate dishes. Percentage survival was determined as the ratio of plating efficiencies for each irradiated group to that of the unirradiated control.

[3] = system: T98G and U87MG cell lines; assay: Inhibition of Fas-induced apoptosis by antagonistic antibody ZB4; type: cell-based; conditions: 1 mM POH with CH11, absence of cycloheximide; inhibited by ZB4
Protocol: Referring to FIG. 26, semiconfluent culture plates T98G and U87MG cell lines were treated with the 1 mM POH in the presence or absence of the anti-CD95 antibody CH11 (100 ng/ml), cycloheximide (CX), the Fas-induced apoptosis blocking antibody ZB4 (2 ug/ml) or a combination of all for a period of 72 hours. Viability analysis was carried out using propidium iodide solution by flow cytometric analysis. Each graphed point in the figure represents the average values of duplicate samples.

[4] = system: DLD-1 colon cancer cells; assay: Clonogenic survival assay, POH with or without radiation, DLD-1; type: cell-based, human
Protocol: as §1

[5] = system: T98G cells; assay: Clonogenic survival, POH pretreatment then cisplatin, T98G; type: cell-based, human; conditions: POH 0.1 mM–0.5 mM 48 hours then cisplatin 0.05 uM–1 uM 48 hours
Protocol: Referring to FIG. 28, subconfluent cells of T98G cells were treated with varying concentrations of perillyl alcohol (0.1 mM–0.5 mM) for 48 hours and subsequently treated with the indicated dose of cisplatin (0.05 uM–1 uM) for 48 hours. At the end of the treatment, POH pretreated and untreated cells in the presence and absence of cisplatin, were harvested, washed with PBS, plated at the desired cell number and incubated for two weeks. The colonies were stained with crystal violet and quantitated. Survival was determined as the ratio of plating efficiencies for each irradiated group to that of the untreated control.

[6] = rats, 2% POH diet for 10 weeks; cited from earlier work
[7] = system: MO59K cells; assay: Clonogenic survival assay, POH with or without radiation, MO59K; type: cell-based, human; conditions: for % SURVIVAL: MO59K
Protocol: Subconfluent cultures of human glioma cell line MO 59K were treated with 0.1–0.5 mM of POH for 72 hours and subsequently to increasing doses of radiation from 0.1 Gy to 8.5 Gy. Control cells were treated with the indicated doses of radiation alone. The cells were harvested and an optimum number of cells were allowed to grow for 14 days. The resulting colonies were stained and counted. Each graphed point represents mean values ± SE values of triplicate dishes.
as §1

[8] = system: glioma and prostate cancer cell lines; assay: Augmentation of CD95 (Fas)-mediated apoptosis with anti-CD95 antibody CH11; type: cell-based; conditions: T98G, U87, U353, U251; 1 mM POH with CH11, absence of cycloheximide
Protocol: Referring to FIG. 25, semiconfluent cultures of glioma and prostate cancel cell lines were treated with the 1 mM POH in the presence or absence of the anti-CD95 antibody CH11 (100 ng/ml), radiation (8.5 Gy for T98G, U87MG, U373 and 5.5 Gy for PC3 and DU145), cycloheximide (CX) or a combination of all for a period of 72 hours. Cells treated with cycloheximide and anti-Fas served as a positive control. The death by treating cells with 1 mM POH or radiation alone was also quantitated. The estimation of apoptosis was done by staining the harvested cells with propidium iodide as described before. Each graphed point in the figure represents the average values of duplicate samples.

## C=C(C)[C@@H]1CC=C(CO)CC1 [POH, Perillyl alcohol]
[1]; dietary
  potency at inducing tumor regression relative to limonene: greater than five times more potent than limonene
[1]; induced by DMBA
  regression of rat mammary carcinoma: 84%
[1]; induced by NMU
  regression of rat mammary carcinoma: 60%
[2]; 0.1 mM POH 72 h, no radiation
  % SURVIVAL: 0.648 ± 0.008%
[2]; 0.1 mM POH + 5.5 Gy
  % SURVIVAL: 0.044 ± 0.00157%
[2]; 0.3 mM POH 72 h, no radiation
  % SURVIVAL: 0.456 ± 0.0112%
[2]; 0.3 mM POH + 5.5 Gy
  % SURVIVAL: 0.026 ± 0.00076%
[2]; 0.5 mM POH 72 h, no radiation
  % SURVIVAL: 0.207 ± 0.005%
[2]; 0.5 mM POH + 5.5 Gy
  % SURVIVAL: 0.017 ± 0.005%
[3]
  Fas-mediated apoptosis: augmented Fas-mediated apoptosis
[4]; 0.1 mM POH 72 h, no radiation
  % SURVIVAL: 1.690 ± 0.100%
[4]; 0.1 mM POH + 5.5 Gy
  % SURVIVAL: 0.038 ± 0.009%
[4]; 0.3 mM POH 72 h, no radiation
  % SURVIVAL: 0.899 ± 0.070%
[4]; 0.3 mM POH + 5.5 Gy
  % SURVIVAL: 0.050 ± 0.003%
[4]; 0.5 mM POH 72 h, no radiation
  % SURVIVAL: 0.019 ± 0.001%
[4]; 0.5 mM POH + 5.5 Gy
  % SURVIVAL: 0.001 ± 0.001%
[5]
  sensitization to cisplatin-induced cell death: dose-dependent sensitization
[6]
  plasma levels of terpene metabolites: 820 µM
[7]; M059K, cells not initially radiation resistant, 0.1–0.5 mM POH 72 h
  radiosensitization: lack of radiosensitization
[7]; 0.1 mM POH 72 h, no radiation
  % SURVIVAL: 0.939 ± 0.005%
[7]; 0.1 mM POH + 5.5 Gy
  % SURVIVAL: 0.061 ± 0.007%
[7]; 0.3 mM POH 72 h, no radiation
  % SURVIVAL: 0.660 ± 0.020%
[7]; 0.3 mM POH + 5.5 Gy
  % SURVIVAL: 0.080 ± 0.015%
[7]; 0.5 mM POH 72 h, no radiation
  % SURVIVAL: 0.623 ± 0.009%
[7]; 0.5 mM POH + 5.5 Gy
  % SURVIVAL: 0.056 ± 0.006%
[8]
  sensitization to Fas mediated apoptosis: sensitized
